Measured values published in PubChem BioAssay (NCI).
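Cells were grown in 96-well plates and exposed to each compound for 48 hours at five concentrations; endpoints were interpolated linearly between bracketing concentrations, or set to the highest concentration if not reached. GI50 marks 50% less growth. Definition used: TGI = concentration required for complete inhibition of growth.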

Assays:
Experiment in all cases: DTP human tumour cell line panel, 48 h
[1] = test system: 786-0 renal
[2] = test system: A498 renal
[3] = test system: A549 NSCLC
[4] = test system: ACHN renal
[5] = test system: BT-549 breast
[6] = test system: CAKI-1 renal
[7] = test system: CCRF-CEM leukemia
[8] = test system: COLO 205 colon
[9] = test system: DU-145 prostate
[10] = test system: HCC-2998 colon
[11] = test system: HCT-116 colon
[12] = test system: HCT-15 colon
[13] = test system: HL-60(TB) leukemia
[14] = test system: HOP-62 NSCLC
[15] = test system: HOP-92 NSCLC
[16] = test system: HS 578T breast
[17] = test system: HT29 colon
[18] = test system: IGROV1 ovarian
[19] = test system: K-562 leukemia
[20] = test system: KM12 colon
[21] = test system: LOX IMVI melanoma
[22] = test system: M14 melanoma
[23] = test system: MALME-3M melanoma
[24] = test system: MCF7 breast
[25] = test system: MDA-MB-231 breast
[26] = test system: MDA-MB-435
[27] = test system: MOLT-4 leukemia
[28] = test system: NCI-H226 lung
[29] = test system: NCI-H23 lung
[30] = test system: NCI-H460 lung
[31] = test system: NCI-H522 lung
[32] = test system: NCI/ADR-RES ovarian
[33] = test system: OVCAR-3 ovarian
[34] = test system: OVCAR-4 ovarian
[35] = test system: OVCAR-5 ovarian
[36] = test system: OVCAR-8 ovarian
[37] = test system: PC-3 prostate
[38] = test system: RPMI-8226 leukemia
[39] = test system: SF-268 CNS
[40] = test system: SF-295 CNS
[41] = test system: SF-539 CNS
[42] = test system: SK-MEL-2 melanoma
[43] = test system: SK-MEL-28 melanoma
[44] = test system: SK-MEL-5 melanoma
[45] = test system: SK-OV-3 ovarian
[46] = test system: SN12C renal
[47] = test system: SNB-19 CNS
[48] = test system: SNB-75 CNS
[49] = test system: SR leukemia
[50] = test system: SW-620 colon
[51] = test system: T-47D breast
[52] = test system: TK-10 renal
[53] = test system: UACC-257 melanoma
[54] = test system: UACC-62 melanoma
[55] = test system: UO-31 renal
[56] = test system: EKVX NSCLC
[57] = test system: RXF 393 renal
[58] = test system: U251 CNS

With `CCOC(=O)c1cnc2ccc(Cl)cc2c1NCCCN(C)C` the GI50 [1] was 43 µM, the TGI [1] was greater than 100 µM and the GI50 [2] was 15.6 µM. The TGI [2] was 37.8 µM, the GI50 [3] was 21.2 µM and the TGI [3] was 67.7 µM. It also gave a GI50 [4] of 9.85 µM, a TGI [4] greater than 100 µM and a GI50 [5] of 27.8 µM. It also gave a TGI [5] greater than 100 µM, a GI50 [6] of 23.8 µM and a TGI [6] of 96.5 µM. The GI50 [7] was 22.2 µM, the TGI [7] was greater than 100 µM and the GI50 [8] was 10.5 µM. The TGI [8] was 24.6 µM, the GI50 [9] was 25.5 µM and the TGI [9] was 76.3 µM. For the same compound, the GI50 [10] was 38.4 µM, the TGI [10] was greater than 100 µM and the GI50 [11] was 10.2 µM. It also gave a TGI [11] greater than 100 µM, a GI50 [12] of 25.2 µM and a TGI [12] greater than 100 µM. It also gave a GI50 [13] of 19.4 µM, a TGI [13] of 50.8 µM and a GI50 [14] of 23 µM. For the same compound, the TGI [14] was 94.8 µM, the GI50 [15] was 20.3 µM and the TGI [15] was 98.4 µM. The GI50 [16] was 29.5 µM, the TGI [16] was greater than 100 µM and the GI50 [17] was 14.1 µM. For the same compound, the TGI [17] was 52.6 µM, the GI50 [18] was 35 µM and the TGI [18] was greater than 100 µM. The GI50 [19] was 18.1 µM, the TGI [19] was greater than 100 µM and the GI50 [20] was 25.8 µM. The TGI [20] was greater than 100 µM, the GI50 [21] was 14.1 µM and the TGI [21] was 34.1 µM. The GI50 [22] was 17.8 µM, the TGI [22] was 33 µM and the GI50 [23] was 19.1 µM. It also gave a TGI [23] of 38.7 µM, a GI50 [24] of 19.4 µM and a TGI [24] of 75.6 µM. For the same compound, the GI50 [25] was 19.5 µM, the TGI [25] was 86.4 µM and the GI50 [26] was 17.9 µM. It also gave a TGI [26] of 43.5 µM, a GI50 [27] of 16.3 µM and a TGI [27] of 63.5 µM. It also gave a GI50 [28] of 19.9 µM, a TGI [28] of 92.2 µM and a GI50 [29] of 32.7 µM. It also gave a TGI [29] greater than 100 µM, a GI50 [30] of 22.2 µM and a TGI [30] of 82.7 µM. The GI50 [31] was 16.2 µM, the TGI [31] was 39.4 µM and the GI50 [32] was 25 µM. The TGI [32] was greater than 100 µM, the GI50 [33] was 28.1 µM and the TGI [33] was 97.7 µM. For the same compound, the GI50 [34] was 23.6 µM, the TGI [34] was greater than 100 µM and the GI50 [35] was 22.2 µM. For the same compound, the TGI [35] was greater than 100 µM, the GI50 [36] was 11.6 µM and the TGI [36] was 47 µM. The GI50 [37] was 27.3 µM, the TGI [37] was greater than 100 µM and the GI50 [38] was 20.7 µM. The TGI [38] was 54.9 µM, the GI50 [39] was 19.9 µM and the TGI [39] was 94 µM. For the same compound, the GI50 [40] was 22.9 µM, the TGI [40] was greater than 100 µM and the GI50 [41] was 17.4 µM. For the same compound, the TGI [41] was 41.5 µM, the GI50 [42] was 29.1 µM and the TGI [42] was 62.6 µM. For the same compound, the GI50 [43] was 22.9 µM, the TGI [43] was 56.3 µM and the GI50 [44] was 16 µM. It also gave a TGI [44] of 30.4 µM, a GI50 [45] of 34.9 µM and a TGI [45] greater than 100 µM. For the same compound, the GI50 [46] was 20.5 µM, the TGI [46] was greater than 100 µM and the GI50 [47] was 51.1 µM. It also gave a TGI [47] greater than 100 µM, a GI50 [48] of 0.684 µM and a TGI [48] of 77.2 µM. It also gave a GI50 [49] of 6.42 µM, a TGI [49] of 70.4 µM and a GI50 [50] of 13.4 µM. For the same compound, the TGI [50] was 74.6 µM, the GI50 [51] was 41.5 µM and the TGI [51] was greater than 100 µM. For the same compound, the GI50 [52] was 27.5 µM, the TGI [52] was greater than 100 µM and the GI50 [53] was 17.3 µM. It also gave a TGI [53] of 34.9 µM, a GI50 [54] of 16.4 µM and a TGI [54] of 32.8 µM. The GI50 [55] was 16.3 µM and the TGI [55] was 57 µM.
Compound `CC(=O)O[C@@H]1C=CC(=O)C2(CC(=O)O[C@@H]2/C=C(\C)CCC=C(C)C)C1` (stereo not given in full) has a GI50 [1] of 0.931 µM, a TGI [1] of 2.26 µM and a GI50 [2] of 1.73 µM. For the same compound, the TGI [2] was 3.81 µM, the GI50 [3] was 2.04 µM and the TGI [3] was 4.91 µM. It also gave a GI50 [4] of 1.16 µM, a TGI [4] of 2.43 µM and a GI50 [5] of 1.15 µM. For the same compound, the TGI [5] was 3.54 µM, the GI50 [6] was 0.744 µM and the TGI [6] was 2.3 µM. For the same compound, the GI50 [7] was 0.163 µM, the TGI [7] was 0.543 µM and the GI50 [8] was 2.24 µM. It also gave a TGI [8] of 10.3 µM, a GI50 [9] of 0.633 µM and a TGI [9] of 2.38 µM. It also gave a GI50 [56] of 3.28 µM, a TGI [56] of 7.87 µM and a GI50 [10] of 0.601 µM. It also gave a TGI [10] of 1.99 µM, a GI50 [11] of 0.399 µM and a TGI [11] of 1.71 µM. It also gave a GI50 [12] of 0.285 µM, a TGI [12] of 1.28 µM and a GI50 [13] of 0.184 µM. The TGI [13] was 0.557 µM, the GI50 [14] was 1.36 µM and the TGI [14] was 3.4 µM. For the same compound, the GI50 [15] was 1.59 µM, the TGI [15] was 3.94 µM and the GI50 [16] was 2.54 µM. It also gave a TGI [16] greater than 23.4 µM, a GI50 [17] of 0.529 µM and a TGI [17] of 73.9 µM. The GI50 [18] was 0.965 µM, the TGI [18] was 2.47 µM and the GI50 [19] was 0.449 µM. It also gave a GI50 [20] of 1.3 µM, a TGI [20] of 4.16 µM and a GI50 [21] of 0.229 µM. It also gave a TGI [21] of 0.743 µM, a GI50 [24] of 0.0772 µM and a TGI [24] of 0.599 µM. The GI50 [25] was 0.405 µM, the TGI [25] was 1.33 µM and the GI50 [26] was 0.369 µM. For the same compound, the TGI [26] was 1.6 µM, the GI50 [27] was 0.126 µM and the TGI [27] was 1.03 µM. The GI50 [28] was 0.623 µM, the TGI [28] was 4.77 µM and the GI50 [29] was 0.365 µM. For the same compound, the TGI [29] was 1.33 µM, the GI50 [30] was 0.378 µM and the TGI [30] was 2.2 µM. The GI50 [31] was 0.988 µM, the GI50 [32] was 0.223 µM and the TGI [32] was 0.827 µM. For the same compound, the GI50 [33] was 0.435 µM, the TGI [33] was 1.6 µM and the GI50 [35] was 0.267 µM. It also gave a TGI [35] of 1.08 µM, a GI50 [36] of 0.35 µM and a TGI [36] of 1.81 µM. It also gave a GI50 [37] of 0.383 µM, a TGI [37] of 1.19 µM and a GI50 [57] of 0.185 µM. For the same compound, the TGI [57] was 0.962 µM, the GI50 [39] was 1.05 µM and the TGI [39] was 2.31 µM. For the same compound, the GI50 [40] was 1.75 µM, the TGI [40] was 4.07 µM and the GI50 [41] was 0.591 µM. It also gave a TGI [41] of 1.44 µM, a GI50 [42] of 1.51 µM and a TGI [42] of 4.43 µM. It also gave a GI50 [43] of 2.15 µM, a TGI [43] of 7.79 µM and a GI50 [44] of 1.31 µM. For the same compound, the TGI [44] was 3.1 µM, the GI50 [45] was 2 µM and the TGI [45] was 4.49 µM. It also gave a GI50 [46] of 0.997 µM, a TGI [46] of 2.27 µM and a GI50 [47] of 1.6 µM. It also gave a TGI [47] of 3.58 µM, a GI50 [48] of 1.33 µM and a TGI [48] of 2.83 µM. For the same compound, the GI50 [49] was 0.0339 µM, the TGI [49] was 31.6 µM and the GI50 [50] was 0.436 µM. It also gave a GI50 [51] of 0.389 µM, a TGI [51] of 0.873 µM and a GI50 [52] of 1.67 µM. The TGI [52] was 3.71 µM, the GI50 [58] was 0.82 µM and the TGI [58] was 2.07 µM. It also gave a GI50 [53] of 1.03 µM, a TGI [53] of 2.6 µM and a GI50 [54] of 1.12 µM. The TGI [54] was 2.36 µM, the GI50 [55] was 1.58 µM and the TGI [55] was 3.59 µM.
